Results published in ChEMBL document CHEMBL5291721, “A preclinical secondary pharmacology resource illuminates target-adverse drug reaction associations of marketed drugs” (Nat Commun, 2023).

Experiments:
[1] = biological target: T1, 5-hydroxytryptamine receptor 1A (Homo sapiens, UniProt P08908)
T1 sequence (P08908 whole entry): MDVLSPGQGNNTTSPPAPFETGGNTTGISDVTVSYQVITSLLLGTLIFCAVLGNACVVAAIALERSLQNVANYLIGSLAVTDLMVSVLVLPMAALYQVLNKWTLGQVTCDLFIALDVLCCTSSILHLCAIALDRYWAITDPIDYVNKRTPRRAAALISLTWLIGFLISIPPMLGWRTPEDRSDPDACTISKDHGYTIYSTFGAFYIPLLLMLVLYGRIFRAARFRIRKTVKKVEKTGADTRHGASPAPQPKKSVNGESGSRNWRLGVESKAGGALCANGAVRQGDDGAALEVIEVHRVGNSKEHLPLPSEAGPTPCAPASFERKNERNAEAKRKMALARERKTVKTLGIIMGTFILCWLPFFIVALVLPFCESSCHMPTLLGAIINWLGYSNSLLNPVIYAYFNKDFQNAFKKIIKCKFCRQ

[2] = biological target: Rod cGMP-specific 3',5'-cyclic phosphodiesterase subunit alpha (Homo sapiens, UniProt P16499); type: functional
Chain of Rod cGMP-specific 3',5'-cyclic phosphodiesterase subunit alpha (P16499 whole entry): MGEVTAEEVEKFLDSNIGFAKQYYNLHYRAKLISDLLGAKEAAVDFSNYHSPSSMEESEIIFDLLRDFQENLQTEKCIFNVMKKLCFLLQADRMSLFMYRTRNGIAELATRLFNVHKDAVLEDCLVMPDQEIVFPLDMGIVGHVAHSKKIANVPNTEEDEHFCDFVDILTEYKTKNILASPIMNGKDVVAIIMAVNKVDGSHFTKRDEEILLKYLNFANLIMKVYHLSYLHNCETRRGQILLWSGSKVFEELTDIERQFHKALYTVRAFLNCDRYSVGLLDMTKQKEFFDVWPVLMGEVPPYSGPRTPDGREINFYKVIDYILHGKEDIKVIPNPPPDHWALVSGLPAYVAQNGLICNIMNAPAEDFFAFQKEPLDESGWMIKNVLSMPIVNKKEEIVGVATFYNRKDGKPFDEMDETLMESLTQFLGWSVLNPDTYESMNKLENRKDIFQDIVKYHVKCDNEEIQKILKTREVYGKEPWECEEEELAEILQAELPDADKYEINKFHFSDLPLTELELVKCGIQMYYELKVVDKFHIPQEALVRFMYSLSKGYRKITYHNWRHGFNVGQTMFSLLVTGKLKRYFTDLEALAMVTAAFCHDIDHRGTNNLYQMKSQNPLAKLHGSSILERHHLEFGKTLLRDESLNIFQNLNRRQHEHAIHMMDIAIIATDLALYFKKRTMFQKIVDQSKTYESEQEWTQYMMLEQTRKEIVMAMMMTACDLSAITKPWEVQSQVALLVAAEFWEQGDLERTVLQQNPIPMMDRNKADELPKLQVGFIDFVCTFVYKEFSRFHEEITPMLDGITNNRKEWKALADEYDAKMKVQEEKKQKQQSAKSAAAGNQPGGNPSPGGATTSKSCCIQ

[3] = biological target: T2, Muscarinic acetylcholine receptor M5 (Homo sapiens, UniProt P08912)
T2 sequence (P08912 whole entry): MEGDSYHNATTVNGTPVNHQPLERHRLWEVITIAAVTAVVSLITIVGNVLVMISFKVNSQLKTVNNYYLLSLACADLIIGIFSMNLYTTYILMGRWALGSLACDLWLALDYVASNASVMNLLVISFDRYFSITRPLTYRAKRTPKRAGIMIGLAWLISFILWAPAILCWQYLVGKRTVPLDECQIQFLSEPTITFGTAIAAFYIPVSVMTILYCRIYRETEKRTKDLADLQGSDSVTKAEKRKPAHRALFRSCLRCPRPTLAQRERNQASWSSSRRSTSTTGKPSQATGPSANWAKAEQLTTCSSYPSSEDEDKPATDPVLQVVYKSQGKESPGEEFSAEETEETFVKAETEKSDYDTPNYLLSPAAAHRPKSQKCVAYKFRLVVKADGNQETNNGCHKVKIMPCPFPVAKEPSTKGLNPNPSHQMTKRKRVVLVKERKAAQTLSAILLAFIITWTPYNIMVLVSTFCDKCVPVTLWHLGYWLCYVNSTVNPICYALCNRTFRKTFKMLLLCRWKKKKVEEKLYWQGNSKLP

D(1B) dopamine receptor = D(1B) dopamine receptor (Homo sapiens, UniProt P21918)
Chain of D(1B) dopamine receptor (P21918 whole entry): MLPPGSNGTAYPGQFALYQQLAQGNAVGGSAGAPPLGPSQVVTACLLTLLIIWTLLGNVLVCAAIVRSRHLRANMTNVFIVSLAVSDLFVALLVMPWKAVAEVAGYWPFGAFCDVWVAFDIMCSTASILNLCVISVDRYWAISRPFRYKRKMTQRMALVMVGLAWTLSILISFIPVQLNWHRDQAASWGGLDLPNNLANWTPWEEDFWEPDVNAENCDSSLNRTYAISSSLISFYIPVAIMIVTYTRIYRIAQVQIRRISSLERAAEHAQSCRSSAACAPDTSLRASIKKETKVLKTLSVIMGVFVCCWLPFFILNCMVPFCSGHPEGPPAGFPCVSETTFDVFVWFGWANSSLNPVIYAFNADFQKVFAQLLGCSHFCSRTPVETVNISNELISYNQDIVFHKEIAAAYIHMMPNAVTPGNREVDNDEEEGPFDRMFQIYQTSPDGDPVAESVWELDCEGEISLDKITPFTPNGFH

[4] = biological target: 5-hydroxytryptamine receptor 5A (Homo sapiens, UniProt P47898)
Chain of 5-hydroxytryptamine receptor 5A (P47898 whole entry): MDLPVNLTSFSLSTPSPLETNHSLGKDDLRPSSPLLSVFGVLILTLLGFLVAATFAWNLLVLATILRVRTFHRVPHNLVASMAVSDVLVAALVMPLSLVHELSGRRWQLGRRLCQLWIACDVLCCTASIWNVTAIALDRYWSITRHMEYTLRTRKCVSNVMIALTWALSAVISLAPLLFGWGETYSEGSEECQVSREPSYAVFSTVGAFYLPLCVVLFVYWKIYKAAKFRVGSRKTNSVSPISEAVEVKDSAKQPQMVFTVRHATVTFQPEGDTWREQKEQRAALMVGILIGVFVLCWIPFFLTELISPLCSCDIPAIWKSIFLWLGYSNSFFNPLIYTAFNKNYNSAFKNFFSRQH

[5] = biological target: T3, Prostaglandin G/H synthase 1 (Rattus norvegicus, UniProt Q63921); type: functional
T3 sequence (Q63921 whole entry): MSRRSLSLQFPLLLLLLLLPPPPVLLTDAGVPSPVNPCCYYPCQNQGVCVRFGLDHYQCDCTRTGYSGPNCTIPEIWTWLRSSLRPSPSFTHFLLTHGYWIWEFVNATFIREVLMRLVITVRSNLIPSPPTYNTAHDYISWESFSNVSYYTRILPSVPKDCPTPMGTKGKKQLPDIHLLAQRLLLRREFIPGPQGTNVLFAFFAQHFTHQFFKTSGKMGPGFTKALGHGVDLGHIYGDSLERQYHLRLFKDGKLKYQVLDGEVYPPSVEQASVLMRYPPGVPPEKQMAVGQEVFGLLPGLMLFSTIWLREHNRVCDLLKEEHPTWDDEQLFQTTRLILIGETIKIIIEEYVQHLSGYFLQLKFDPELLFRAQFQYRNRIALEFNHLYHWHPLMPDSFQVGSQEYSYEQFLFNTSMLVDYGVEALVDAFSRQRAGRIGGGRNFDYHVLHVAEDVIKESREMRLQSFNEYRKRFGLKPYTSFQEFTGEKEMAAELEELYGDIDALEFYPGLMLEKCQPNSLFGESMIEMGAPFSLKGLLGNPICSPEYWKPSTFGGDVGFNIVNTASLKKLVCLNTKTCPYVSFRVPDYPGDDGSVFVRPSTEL

Histamine H1 receptor [6] = biological target: T4, Histamine H1 receptor (Homo sapiens, UniProt P35367); type: functional, cell-based
T4 sequence (P35367 whole entry): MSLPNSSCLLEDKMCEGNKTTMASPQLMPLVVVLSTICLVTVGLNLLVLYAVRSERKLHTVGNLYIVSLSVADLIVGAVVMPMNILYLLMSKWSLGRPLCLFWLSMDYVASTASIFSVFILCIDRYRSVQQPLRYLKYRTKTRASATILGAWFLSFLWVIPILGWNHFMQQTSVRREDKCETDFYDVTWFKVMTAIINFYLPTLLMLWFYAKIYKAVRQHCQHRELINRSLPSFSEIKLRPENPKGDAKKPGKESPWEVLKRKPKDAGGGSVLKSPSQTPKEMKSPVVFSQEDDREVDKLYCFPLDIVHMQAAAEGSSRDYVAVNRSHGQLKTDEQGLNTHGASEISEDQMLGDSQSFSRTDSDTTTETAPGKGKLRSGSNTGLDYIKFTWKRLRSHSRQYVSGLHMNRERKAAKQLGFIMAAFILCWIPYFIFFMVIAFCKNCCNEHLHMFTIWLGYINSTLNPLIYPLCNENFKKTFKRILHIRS

Histamine H1 receptor [7] = biological target: T4, Histamine H1 receptor; type: functional, cell-based; remark: listed apart in the source
[8] = biological target: T5, Type-1 angiotensin II receptor (Homo sapiens, UniProt P30556)
T5 sequence (P30556 whole entry): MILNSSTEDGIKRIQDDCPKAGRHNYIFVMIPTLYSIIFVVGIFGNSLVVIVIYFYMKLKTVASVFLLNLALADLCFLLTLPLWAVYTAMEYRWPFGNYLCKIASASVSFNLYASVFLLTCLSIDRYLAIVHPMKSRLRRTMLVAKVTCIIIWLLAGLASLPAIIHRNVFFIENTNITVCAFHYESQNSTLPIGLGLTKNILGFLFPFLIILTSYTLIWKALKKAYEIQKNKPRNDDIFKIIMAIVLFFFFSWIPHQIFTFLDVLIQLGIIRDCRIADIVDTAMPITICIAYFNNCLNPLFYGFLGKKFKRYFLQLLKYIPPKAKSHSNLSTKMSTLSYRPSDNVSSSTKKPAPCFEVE

[9] = biological target: Retinoic acid receptor alpha (Homo sapiens, UniProt P10276); type: functional, cell-based
Chain of Retinoic acid receptor alpha (P10276 whole entry): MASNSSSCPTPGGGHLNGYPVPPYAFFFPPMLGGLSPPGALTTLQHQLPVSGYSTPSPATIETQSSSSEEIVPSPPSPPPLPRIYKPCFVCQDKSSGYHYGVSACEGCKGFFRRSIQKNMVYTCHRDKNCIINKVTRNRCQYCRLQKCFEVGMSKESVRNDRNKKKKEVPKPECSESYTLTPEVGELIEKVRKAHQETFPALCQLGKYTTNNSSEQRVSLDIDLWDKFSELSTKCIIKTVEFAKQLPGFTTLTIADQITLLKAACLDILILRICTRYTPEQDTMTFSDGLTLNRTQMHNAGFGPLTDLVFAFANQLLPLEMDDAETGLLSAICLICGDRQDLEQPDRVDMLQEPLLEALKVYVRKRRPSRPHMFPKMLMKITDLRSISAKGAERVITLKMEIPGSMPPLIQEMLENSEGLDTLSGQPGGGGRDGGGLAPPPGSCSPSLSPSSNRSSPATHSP

[10] = biological target: Retinoic acid receptor gamma (Homo sapiens, UniProt P13631); type: functional, cell-based
Chain of Retinoic acid receptor gamma (P13631 whole entry): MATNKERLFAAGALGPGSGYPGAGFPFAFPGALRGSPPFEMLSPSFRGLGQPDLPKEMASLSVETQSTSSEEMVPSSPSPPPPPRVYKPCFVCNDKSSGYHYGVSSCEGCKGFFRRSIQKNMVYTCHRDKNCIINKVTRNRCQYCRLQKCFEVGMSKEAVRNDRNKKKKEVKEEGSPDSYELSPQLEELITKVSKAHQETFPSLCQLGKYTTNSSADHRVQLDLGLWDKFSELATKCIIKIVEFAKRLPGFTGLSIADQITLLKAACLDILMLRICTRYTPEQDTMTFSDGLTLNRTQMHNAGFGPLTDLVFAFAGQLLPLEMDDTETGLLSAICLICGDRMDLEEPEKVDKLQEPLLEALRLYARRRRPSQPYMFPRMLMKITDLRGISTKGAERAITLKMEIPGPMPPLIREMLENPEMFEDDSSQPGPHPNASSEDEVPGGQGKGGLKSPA

[11] = biological target: T6, Oxysterols receptor LXR-beta (Homo sapiens, UniProt P55055); type: functional
T6 sequence (P55055 whole entry): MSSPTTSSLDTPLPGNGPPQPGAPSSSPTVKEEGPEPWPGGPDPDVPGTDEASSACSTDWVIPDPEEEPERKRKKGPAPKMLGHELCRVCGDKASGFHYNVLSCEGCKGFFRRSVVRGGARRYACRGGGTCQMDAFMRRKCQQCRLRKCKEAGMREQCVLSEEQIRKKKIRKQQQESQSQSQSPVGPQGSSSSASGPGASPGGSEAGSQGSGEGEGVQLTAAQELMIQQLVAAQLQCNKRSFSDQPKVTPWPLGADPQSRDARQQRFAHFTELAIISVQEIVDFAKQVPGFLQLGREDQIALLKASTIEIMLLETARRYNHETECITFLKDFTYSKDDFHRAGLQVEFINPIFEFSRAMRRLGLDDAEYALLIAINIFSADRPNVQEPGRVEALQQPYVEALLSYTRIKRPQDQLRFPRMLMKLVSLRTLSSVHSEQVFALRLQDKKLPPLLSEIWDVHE

[12] = biological target: Oxysterols receptor LXR-alpha (Homo sapiens, UniProt Q13133); type: functional
Chain of Oxysterols receptor LXR-alpha (Q13133 whole entry): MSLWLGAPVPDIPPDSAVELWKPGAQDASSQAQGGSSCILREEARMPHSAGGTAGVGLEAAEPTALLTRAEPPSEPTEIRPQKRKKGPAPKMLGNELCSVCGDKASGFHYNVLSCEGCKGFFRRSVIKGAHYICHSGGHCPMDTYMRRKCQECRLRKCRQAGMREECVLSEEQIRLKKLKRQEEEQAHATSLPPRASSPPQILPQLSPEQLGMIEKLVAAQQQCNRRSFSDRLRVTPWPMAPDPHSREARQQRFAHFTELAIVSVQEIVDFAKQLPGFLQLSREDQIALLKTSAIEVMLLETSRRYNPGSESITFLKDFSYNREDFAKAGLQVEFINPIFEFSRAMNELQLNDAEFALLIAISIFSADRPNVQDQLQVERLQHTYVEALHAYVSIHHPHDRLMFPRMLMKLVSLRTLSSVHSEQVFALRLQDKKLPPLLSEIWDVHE

[13] = biological target: T6, Oxysterols receptor LXR-beta; type: functional; remark: listed apart in the source
[14] = biological target: T7, Retinoic acid receptor beta (Homo sapiens, UniProt P10826); type: functional, cell-based
T7 sequence (P10826 whole entry): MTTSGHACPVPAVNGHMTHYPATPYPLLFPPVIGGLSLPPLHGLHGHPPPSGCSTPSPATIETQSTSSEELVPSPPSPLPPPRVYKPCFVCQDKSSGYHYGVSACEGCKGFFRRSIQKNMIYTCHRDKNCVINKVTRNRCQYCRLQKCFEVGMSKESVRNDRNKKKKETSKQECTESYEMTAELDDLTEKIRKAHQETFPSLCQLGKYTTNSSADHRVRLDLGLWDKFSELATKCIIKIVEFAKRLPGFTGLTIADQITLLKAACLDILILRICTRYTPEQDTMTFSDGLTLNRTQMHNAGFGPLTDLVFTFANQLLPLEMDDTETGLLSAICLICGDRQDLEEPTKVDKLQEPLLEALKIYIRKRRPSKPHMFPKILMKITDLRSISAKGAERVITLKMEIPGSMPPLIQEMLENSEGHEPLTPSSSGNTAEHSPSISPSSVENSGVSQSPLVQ

[15] = biological target: T7, Retinoic acid receptor beta; type: functional, cell-based; remark: listed apart in the source
[16] = biological target: Beta-1 adrenergic receptor (Homo sapiens, UniProt P08588); type: functional, cell-based
Chain of Beta-1 adrenergic receptor (P08588 whole entry): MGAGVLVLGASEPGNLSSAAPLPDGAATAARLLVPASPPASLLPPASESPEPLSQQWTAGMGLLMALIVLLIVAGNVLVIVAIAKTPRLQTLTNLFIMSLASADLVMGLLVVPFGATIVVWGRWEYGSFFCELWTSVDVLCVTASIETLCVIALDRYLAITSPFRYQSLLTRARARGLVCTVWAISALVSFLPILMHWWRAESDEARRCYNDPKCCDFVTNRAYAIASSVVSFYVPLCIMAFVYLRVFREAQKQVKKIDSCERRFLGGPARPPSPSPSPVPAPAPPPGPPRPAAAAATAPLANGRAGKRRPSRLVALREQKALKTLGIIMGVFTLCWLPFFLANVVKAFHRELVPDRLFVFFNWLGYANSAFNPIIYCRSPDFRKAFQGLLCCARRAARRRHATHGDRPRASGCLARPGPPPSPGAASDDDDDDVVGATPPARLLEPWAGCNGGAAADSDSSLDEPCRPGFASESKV
Further: assay procedure not described here.

For `CC[C@@H](CO)NC(=O)[C@@H]1C=C2c3cccc4c3c(cn4C)C[C@H]2N(C)C1` [METHYSERGIDE], which AC50 [1] is on record?
Its AC50 is 0.17 µM.

What does the source list for `O=C(O)Cc1ccccc1Nc1c(Cl)cccc1Cl` [DICLOFENAC]?
AC50 [2]: > 10 µM; AC50 [3]: > 10 µM; AC50 (D(1B) dopamine receptor): > 10 µM; AC50 [4]: > 10 µM

With `CN(CCOc1ccc(CC2SC(=O)NC2=O)cc1)c1ccccn1` (stereo unspecified) [ROSIGLITAZONE] as the compound, how does the AC50 [3] read?
The AC50 was over 10 µM.

What about the AC50 [5] of the same compound?
The AC50 was over 30 µM.

How did the AC50 (Histamine H1 receptor [6]) turn out when `O=C(O)Cc1ccccc1Oc1ccc(Cl)cc1Cl` [FENCLOFENAC] was run?
Its AC50 is over 30 µM.

What about the AC50 (Histamine H1 receptor [7]) of the same compound?
The AC50 was over 30 µM.

Which AC50 [3] does the source give for `CCCc1nc2c(C)cc(-c3nc4ccccc4n3C)cc2n1Cc1ccc(-c2ccccc2C(=O)O)cc1` here?
Its AC50 is over 10 µM.

Which results are given for `CCOc1nc2cccc(C(=O)O)c2n1Cc1ccc(-c2ccccc2-c2nnn[nH]2)cc1`?
AC50 [8]: 0.0004 µM; AC50 [2]: > 10 µM; AC50 [3]: > 10 µM; AC50 (D(1B) dopamine receptor): > 10 µM; AC50 [4]: > 10 µM

For `Cc1nc(Nc2ncc(C(=O)Nc3c(C)cccc3Cl)s2)cc(N2CCN(CCO)CC2)n1` [DASATINIB], which AC50 [3] is on record?
Its AC50 is over 10 µM.

Which AC50 [9] does the source give for `COc1cc(C(=O)NS(=O)(=O)c2ccccc2C)ccc1Cc1cn(C)c2ccc(NC(=O)OC3CCCC3)cc12` [ZAFIRLUKAST] here?
The AC50 was over 30 µM.

And the AC50 [10]?
Its AC50 is over 30 µM.

And the AC50 [11]?
The AC50 was over 30 µM.

And the AC50 [12]?
The AC50 was over 30 µM.

And the AC50 [13]?
Its AC50 is over 30 µM.

What about the AC50 [14] of the same compound?
Its AC50 is over 30 µM.

What about the AC50 [15] of the same compound?
The AC50 was 13 µM.

Which AC50 (Histamine H1 receptor [6]) does the source give for `CN1Cc2c(N)cccc2C(c2ccccc2)C1` (stereo unspecified) [NOMIFENSINE] here?
The AC50 was over 30 µM.

And the AC50 (Histamine H1 receptor [7])?
The AC50 was over 30 µM.

`CC(C)C[C@H](NC(=O)[C@@H](O)[C@H](N)Cc1ccccc1)C(=O)O` [UBENIMEX] was tested. Which AC50 [16] did it give?
The AC50 was over 30 µM.
